According to patent publication EP0909530A1, “Increased solubility of water soluble compounds” (BASF CORPORATION, priority 1997, dated 1999):

Experiment: Crystal formation in acifluorfen solution with co-solvents after cold storage (Example 2)
Assay type: physicochemical
Conditions: for Crystal Formation (%): stored at 5°C for 4 days, read at room temperature; for inhibition of precipitate: result in words
Description: An aqueous solution having a concentration of 46.8 % acifluorfen (sodium salt, Rohm and Haas, Inc.; significant crystallization observed) was heated to about 50°C to 60°C and stirred until the crystals dissolved (about ten hours). The solution was allowed to cool to room temperature. The dispersants were separately added to the solutions containing the acifluorfen to form a 1.0% solution (by weight) of the dispersant. The resulting samples were stored at 5°C for four days.
After four days, the samples were removed from storage and allowed to reach room temperature and the volume occupied by crystals was calculated (visual estimates) . The results were obtained by observation using a polarized Nikon Optiphot-2 Pol microscope.
Co-Solvents were evaluated for their ability to inhibit precipitation of acifluorfen in aqueous solutions. The experiment was carried-out using the same steps as described for the dispersants of Example 1. The co-solvents were evaluated at 5% and 10% by total weight of the solution. The formulations were stored at 5°C for 4 days and the percent crystal volume recorded after the temperature reached room temperature. […]

| Compound | Crystal Formation (%) (co-solvent Amount 5 %) | Crystal Formation (%) (co-solvent Amount 10 %) | inhibition of precipitate |
| --- | --- | --- | --- |
| CCCCOCCO [Butyl Cellosolve] | 10 | 15 | most significant inhibition |
| OCCO [Ethylene Glycol] | 10 | 15 | most significant inhibition |
| CC(O)CO (centres unmarked) [Propylene Glycol] | 10 | 80 |  |
